Consider twelve compounds from patent US20160106711A1, “3-3-Di-Substituted-Oxindoles as Inhibitors of Translation Initiation” (President and Fellows of Harvard College, priority 2012, published 2016).

The subject of one test is CRL-2813. Briefly: Cell growth assay (sulforhodamine B), CRL-2813 cells. The class given is cell-based, human. As to conditions: 5 days, SRB. Summed up: (§1)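 Cells were exposed for 5 days to 0.54-6 µM compound, then TCA-fixed and stained with sulforhodamine B, read at 490 nm. Growth was expressed as %T/C with time-zero correction. IC50 is the concentration giving 50% growth inhibition.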

Test [1] has as its system eIF2•GTP•Met-tRNAi ternary complex. Briefly: Ternary complex assay (ATF-4 assay), dual luciferase firefly/renilla ratio. It is filed as cell-based, mouse. The settings on record: for maximal fold induction at 40 µM: read-out: ATF-4 Xmax @ 40 μM. Summed up:
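Stable KLN cancer cells expressing tTA carry a bidirectional reporter in which firefly luciferase sits behind the ATF-4 5′UTR and renilla luciferase behind a plasmid-derived 5′UTR only. Lysates were read by Dual-Glo luciferase assay, and the output is the firefly/renilla signal ratio.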

For the next test, the system named is CHOP mRNA. The test is described as follows: Real time PCR of CHOP mRNA expression, KLN cells. It is filed as cell-based, mouse. The method, then: In order to validate the compounds described herein as modifiers of the abundance of the eIF2•GTP•Met-tRNAi ternary complex, the effects of the compounds on endogenous cellular markers of the ternary complex were determined. For example, reducing amount of the ternary complex increases translation of ATF-4, which results in elevated expression of CHOP mRNA and protein. Therefore, expression of endogenous CHOP mRNA and CHOP protein in KLN-tTA/pBISA-DL^(ATF-4) cells were utilized as secondary assays to validate the compounds as modifiers of the eIF2•GTP•Met-tRNAi ternary complex.
Total RNA was extracted with TaqMan Gene Expression Cells-to-Ct™ Kit (Applied Biosystems, Branchburg, N.J.) and DNAse I treated according to manufacturer's recommendations. 1-Step Real-time PCR was performed on a Bio-Rad iCycler IQ5 system by using B-R 1-Step SYBR Green qRT-PCR Kit (Quanta BioSciences, Gaithersburg, Md.) according to manufacturer's specifications. The thermal cycler conditions were as follows: 10 minutes at 50° C., hold for 5 minutes at 95° C., followed by 2-step PCR for 45 cycles of 95° C. for 15 seconds followed by 60° C. for 30 seconds. All PCRs were performed in triplicate in at least two independent PCR runs. Mean values of these repeated measurements were used for calculation. To calibrate the results, all the transcript quantities were normalized to 18S rRNA (18S ribosomal RNA-like mRNA in mouse). The following primers were used in real-time PCR reactions.
The effects of these compounds on the ternary complex assay and the expression of CHOP mRNA was assayed in adherent mouse (KLN) and human solid tumors cells (CRL-2351 and CRL-2813).
Background: In qPCR the cycle at which signal appears reflects the starting amount.

Another test deals with KLN. Briefly: Cell growth assay (sulforhodamine B), KLN cells. It is filed as cell-based, mouse. As to conditions: 5 days, SRB.
The next test relates to CRL-2351. The test is described as follows: Cell growth assay (sulforhodamine B), CRL-2351 cells. The class given is cell-based, human. As to conditions: 5 days, SRB. In outline:
as §1

Setting [2] is: Mus musculus, read-out: ATF-4 Xmax.

One may read the IC50 as the concentration that gives 50% inhibition. On to `CCN(CCO)CCOc1ccc(C(C)(C)C)cc1C1(c2cc(C(C)(C)C)ccc2OCCN2CCOCC2)C(=O)N(CCN(C)C)c2ccccc21` (stereo not shown) [HY306], for which the IC50 turned out to be 2.7 ± 0.8 µM with CRL-2813, 2.3 ± 1.6 µM in the test on KLN and 2.3 ± 0.6 µM in the test with CRL-2351. Also, the “ATF-4 Xmax @ 40 μM” value in test [1] (at 40 uM) turned out to be 19.2 ± 11.2 at 40 uM. Moreover, the “CHOP PCR (μM) KLN” value in the test on CHOP mRNA (at 20 uM) is on record as 8.11 at.
The fold induction is the ratio of treated to control signal. A low value points to little rise in signal. Consider `CN1CCN(CCOc2ccc(C(C)(C)C)cc2C2(c3cc(C(C)(C)C)ccc3OCCN3CCN(C)CC3)C(=O)N(CCN3CCNCC3)c3ccccc32)CC1` [HY313], for which the IC50 in the test on CRL-2813 (Homo sapiens, CRL2813, 120 h) was over 20 µM; in the test with KLN (Mus musculus, 120 h), 9.3 ± 3.2 µM; in the test on CRL-2351 (Homo sapiens, 120 h) it was 0.6 ± 0.1 µM. The compound also gave a fold induction at 10 µM in the test on CHOP mRNA (Mus musculus, at 10 (uM)) of 6.73.
On to `COc1ccc(C2(c3cc(C(C)(C)C)ccc3OCCN3CCOCC3)C(=O)Nc3ccc(OC)cc32)cc1` (stereo not shown) [Sd185, 3-{5-tert-butyl-2-[2-(morpholin-4-yl)ethoxy]phenyl}-5-methoxy-3-(4-methoxyphenyl)-indol-2-one], for which the IC50 was 2.9 ± 0.3 µM in the test with CRL-2813 (Homo sapiens, CRL2813, 120 h); 2.75 ± 0.3 µM in the test with KLN (Mus musculus, 120 h); 4.5 ± 0.7 µM in the test on CRL-2351 (Homo sapiens, 120 h). In addition, the maximal fold induction at 40 µM in test [1] (Mus musculus, at 40 uM) is 3.92 ± 0.16.
`COC(=O)c1cccc2c1NC(=O)C2(c1ccc(OC)cc1)c1cc(C(C)(C)C)ccc1O` (stereo not shown) [Sd202]: the IC50 in the test on CRL-2813 (Homo sapiens, CRL2813, 120 h) was 12.2 ± 0.5 µM; in the test on KLN (Mus musculus, 120 h), over 20 µM; in the test with CRL-2351 (Homo sapiens, 120 h), 3.4 ± 0.6 µM. The maximal fold induction at 40 µM in test [1] (Mus musculus, at 40 uM) worked out at 4.12 ± 0.42.
`COC(=O)c1cccc2c1NC(=O)C2(c1ccc(OC)cc1)c1cc(C(C)(C)C)ccc1OCCN1CCOCC1` (stereo not shown) [Sd203, Methyl 3-{5-tert-butyl-2-[2-(morpholin-4-yl)ethoxy]phenyl}-3-(4-methoxyphenyl)-2-oxoindole-7-carboxylate]: the IC50 in the test on CRL-2813 (Homo sapiens, CRL2813, 120 h) is 14.6 ± 2.8 µM; with KLN (Mus musculus, 120 h), 17 ± 3.5 µM; in the test with CRL-2351 (Homo sapiens, 120 h) it was 16.3 ± 1.6 µM. In addition, in test [1] (Mus musculus, cell prints 5 (uM), read-out: ATF-4 Xmax), the maximal fold induction at 5 µM turned out to be 1.51 ± 0.3.
Turning to `COc1ccc(C2(c3cc(C(C)(C)C)ccc3OCCN3CCOCC3)C(=O)Nc3ccc(I)cc32)cc1` (stereo not shown) [Sd204, 3-{5-tert-butyl-2-[2-(morpholin-4-yl)ethoxy]phenyl}-5-iodo-3-(4-methoxyphenyl)indol-2-one], the IC50 was 2.6 ± 0.4 µM in the test on CRL-2813 (Homo sapiens, CRL2813, 120 h); 12 ± 1.2 µM in the test on KLN (Mus musculus, 120 h); 6.1 ± 1.7 µM in the test on CRL-2351 (Homo sapiens, 120 h). In addition, the maximal fold induction at 40 µM in test [1] (Mus musculus, at 40 uM) is 4.5 ± 0.93.
In the case of `COc1ccc(C2(c3cc(C(C)(C)C)ccc3OCCN3CCOCC3)C(=O)Nc3ccccc32)cc1F` (stereo not shown) [Sd205], the IC50 was 2.7 ± 0.4 µM with CRL-2813 (Homo sapiens, CRL2813, 120 h); 3.4 ± 1.2 µM in the test with KLN (Mus musculus, 120 h); 2.5 ± 0.6 µM with CRL-2351 (Homo sapiens, 120 h). Besides, the maximal fold induction at 80 µM in test [1] (setting [2]) worked out at 5.2 ± 2.1.
Take `CC(C)(C)c1ccc(O)c(C2(c3ccccc3)C(=O)Nc3ccc(I)cc32)c1` (stereo not shown) [Sd223]: the IC50 with CRL-2813 (Homo sapiens, CRL2813, 120 h) came to 2.8 ± 0.2 µM; with KLN (Mus musculus, 120 h) it was 14.9 ± 3.8 µM; in the test with CRL-2351 (Homo sapiens, 120 h), 3.5 µM. The maximal fold induction at 40 µM in test [1] (Mus musculus, at 40 uM) is 7.2 ± 1.2.
The matching figures for `CC(C)(C)c1ccc(O)c(C2(c3ccccc3)C(=O)Nc3ccc(OC(F)(F)F)cc32)c1` (stereo not shown) [Sd224]: 1 µM, 8 µM, 2.5 ± 0.9 µM and 2.56 ± 0.3.
The matching figures for `COc1ccc(C2(c3cc(C(C)(C)C)ccc3OCCN3CCOCC3)C(=O)Nc3ccc(OC(F)(F)F)cc32)cc1` (stereo not shown) [Sd225]: 1.9 ± 0.7 µM, 9.3 ± 2.7 µM, 2.9 ± 0.27 µM and 5.11 ± 0.48.
As for `CC(C)(C)c1ccc(O)c(C2(c3ccccc3)C(=O)Nc3ccc(-c4ccc(N5CCOCC5)nc4)cc32)c1` (stereo not shown) [Sd231], the IC50 turned out to be 2.5 ± 1.5 µM in the test on CRL-2813 (Homo sapiens, CRL2813, 120 h); 13.3 ± 2.4 µM with KLN (Mus musculus, 120 h); 1.8 ± 0.4 µM in the test with CRL-2351 (Homo sapiens, 120 h). Moreover, the maximal fold induction at 80 µM in test [1] (setting [2]) turned out to be 15.6 ± 0.4.
As for `CC(C)(C)c1ccc(O)c(C2(c3ccccc3)C(=O)Nc3ccc4ncsc4c32)c1` (stereo not shown) [Sd233], the half-maximal inhibitory concentration (IC50) in the test with CRL-2813 (Homo sapiens, CRL2813, 120 h) was 0.95 ± 0.1 µM; in the test with KLN (Mus musculus, 120 h) it was 8 µM; in the test with CRL-2351 (Homo sapiens, 120 h), 2.2 ± 1 µM. Moreover, the maximal fold induction at 40 µM in test [1] (Mus musculus, at 40 uM) amounted to 1.2 ± 0.05.
